Where two headings read alike, the source gives them in different places.
Experiments:
[1] = biological target: T1, human 5-HT2B receptor (Homo sapiens, UniProt P41595); test: 5-HT2B agonist activity assay, IP1 production (HTRF) in CHO cells; format: cell-based
T1 construct: host or cells: CHO
Experimental: Evaluation of the agonist activity of compounds (I), (Ia) and (Ib) at the human 5-HT2B receptor was performed by Eurofins/Cerep (France) measuring the compound effects on inositol monophosphate (IP1) production using the HTRF detection method. Briefly, the human 5-HT2B receptor was expressed in transfected CHO cells. The cells were suspended in a buffer containing 10 mM Hepes/NaOH (pH 7.4), 4.2 mM KCl, 146 mM NaCl, 1 mM CaCl2, 0.5 mM MgCl2, 5.5 mM glucose and 50 mM LiCl, then distributed in microplates at a density of 4100 cells/well and incubated for 30 minutes at 37° C. in the presence of buffer (basal control), test compound or reference agonist. For stimulated control measurement, separate assay wells contained 1 μM 5-HT. Following incubation, the cells were lysed and the fluorescence acceptor (fluorophen D2-labeled IP1) and fluorescence donor (anti-IP1 antibody labeled with europium cryptate) were added. After 60 minutes at room temperature, the fluorescence transfer was measured at lambda(Ex) 337 nm and lambda(Em) 620 and 665 nm using a microplate reader (Rubystar, BMG). The IP1 concentration was determined by dividing the signal measured at 665 nm by that measured at 620 nm (ratio). The results were expressed as a percent of the control response to 1 μM 5-HT. […]

[2] = PK experiments in Wistar rats, plasma compound (I) after oral dosing of prodrugs; format: in vivo, rat; conditions: FIG. 1, doses equal to 287 μg/kg of compound (I)
Experimental: Plasma was placed on water-ice following collection. Final storage at approximately −70° C.
Mobile phase B: Acetonitrile. […] Flow rate 0.5 mL/min.
The rats had unrestricted access to the diet.
Mobile phase B: Acetonitrile+0.2% formic acid. […] Flow rate 0.3 mL/min.
Dosing and blood sampling for compound (Ic): Han Wistar rats were supplied by Envigo, UK. […] The rats received a standard laboratory diet Teklad 2014C. The rats had unrestricted access to the diet.

[3] = Liu et al., Bioorganic Med. Chem. (2008); rats; cited from earlier work
[4] = pKa values / major species of ionization; format: physicochemical
[5] = system: rat hepatocytes; test: Conversion of compound (Id) to compound (I) in rat hepatocytes; format: in vitro ADME; conditions: 1 μg/mL, 37° C., 0.25-60 minutes
Experimental: (§1) The cell concentration at incubation was 1×10^6 viable cells/mL. The incubations were performed in glass tubes at 37° C. with a total incubation volume of 3.5 mL and with duplicate incubations for each test item. The 3.5 mL of hepatocyte suspension was equilibrated for 10 minutes in a water bath set to 37° C. where after the incubations were initiated by adding 3.5 μL of a stock solution of the test item in DMSO (Dimethyl sulfoxide) and gently inverting the tubes. The final solvent concentration in the incubations was 0.1% DMSO. Samples of 600 μL were withdrawn from the incubations at the pre-determined time points of 0.25, 5, 15, 30 and 60 minutes after ensuring homogeneity of hepatocyte suspensions. The withdrawn volume was added to 1 mL Nunc cryo tubes on wet ice containing 60 μL of ice-cold ascorbic acid (100 mg/mL) and 30 μL of ice cold 100 mM saccharic acid 1,4-lactone in 0.5 M citric acid. The tubes were mixed and 35 μL of a solution of ice cold 20% formic acid was added. The tubes were mixed thoroughly and stored at −80° C. awaiting analysis.

[6] = system: human hepatocytes; test: Conversion of compound (Id) to compound (I) in human hepatocytes; format: in vitro ADME; conditions: 1 μg/mL, 37° C., 0.25-60 minutes
Experimental: as §1

[7] = Conversion of (Id) to (I) in fresh rat blood; format: in vitro ADME; conditions: 1 μg/mL, 37° C., 0-60 minutes
Experimental: (§2) Conversion of (Id) in human blood (average of 3 donors) and rat blood (average of 45 donors) to (I) was shown in fresh blood at 37° C. spiked with 1 μg/mL of (Id). (I) was measured at 0, 5, 15, 30 and 60 minutes in isolated plasma. Analysis method and Instrumentation as described in Examples 9 and 10 below in the section “Instrumentation used for analysis of compound (l) from dosing of compounds (Ic) and (Id).”

[8] = Conversion of (Id) to (I) in fresh human blood; format: in vitro ADME; conditions: 1 μg/mL, 37° C., 0-60 minutes
Experimental: as §2

[9] = system: rat locomotor activity; test: Rat locomotor activity (hyperactivity) assay, open field, with PK/PD; format: in vivo
Experimental: Mass spectrometer (UPCLC-MS/MS) Waters Acquity I-Class-Waters Xevo TQ-S. Analytical column Acquity HSS T3 C18 50×2.1 mm, 1.8 μm. Mobile phase A: 10 mM NH4—Formate 0.2% formic acid:Acetonitril (95:5). Mobile phase B: 10 mM NH4—Formate 0.2% formic acid:Acetonitril (5:95). Gradient run from 95/5% to 5/95% in 2.40 minutes. Flow rate 0.3 mL/min. MRM detection of test items and the added analytical standards.
Animals for the study were as described in Example 10. Additionally, rats were administered a single dose of apomorphine subcutaneously.
In total, 206 male CD rats (Charles River, Germany) weighing 200-250 grams (165-190 grams upon arrival) were used in the study. Animals were housed at a standard temperature (22±1° C.) and in a light-controlled environment (lights on from 7 am to […]) with ad libitum access to food and water. The experiment described below was performed in accordance with the standard operating procedures of Charles River Discovery Research Services Finland Ltd. and in accordance with the national Animal Experiment Board of Finland (Eläinkoelautakunta, ELLA) authority on animal testing.
The test device is a square Plexiglass-arena (measuring 40×40×40 cm), in which the movement paths of the rats are recorded by an activity monitor (Med. Associates Inc.). Before the test period is initiated, rats are habituated to their test cage for 60 minutes. Upon completion of habituation, animals were treated with either compound or vehicle and placed back into the open field apparatus. The main test parameter measured is ambulatory distance (recorded in 5-minute segments). Overall time of measurement after receiving initial treatment was 360 minutes. Total follow up period in the study was 420 min, including 60 min of habituation.

[10] = Oral dosing of compound (Id) in minipigs; format: in vivo, minipig
[11] = man, after oral dosing; cited from earlier work

T1 sequence (P41595 whole entry): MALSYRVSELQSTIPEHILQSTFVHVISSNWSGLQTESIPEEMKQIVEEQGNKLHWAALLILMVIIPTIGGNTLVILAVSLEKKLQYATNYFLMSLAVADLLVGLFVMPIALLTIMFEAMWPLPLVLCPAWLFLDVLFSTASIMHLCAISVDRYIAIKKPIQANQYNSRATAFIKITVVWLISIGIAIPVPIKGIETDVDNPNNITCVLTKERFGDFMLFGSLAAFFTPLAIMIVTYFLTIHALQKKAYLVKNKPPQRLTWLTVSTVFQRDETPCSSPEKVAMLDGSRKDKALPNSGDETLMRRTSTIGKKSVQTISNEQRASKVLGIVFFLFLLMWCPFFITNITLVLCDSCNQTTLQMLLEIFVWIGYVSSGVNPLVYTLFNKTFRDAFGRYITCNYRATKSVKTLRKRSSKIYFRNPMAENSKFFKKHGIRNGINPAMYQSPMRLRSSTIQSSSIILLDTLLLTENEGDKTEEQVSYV

SMILES: CCCN1CCC[C@@H]2CC3=C(CCCC3=O)C[C@H]21 [(Ia)]
- 5-HT2B agonist effect at single concentration ([1]; @ 30 μM, percent of control response to 1 μM 5-HT): 58% @ 30 μM
- Plasma profile of compound (I) after oral dosing, in words [2]: early and high peak concentrations

SMILES: CCCN1CCC[C@@H]2Cc3c(ccc(OC(=O)C(C)(C)C)c3OC(=O)C(C)(C)C)C[C@H]21 [(Ic)]
- 5-HT2B agonist effect at single concentration ([1]; @ 10 μM): −5% @ 10 μM
- Plasma profile of compound (I) after oral dosing, in words [2]: extremely low

SMILES: CCCN1CCC[C@@H]2Cc3c(ccc(O)c3O)C[C@H]21 [Compound (I), (4aR,10aR)-1-Propyl-1,2,3,4,4a,5,10,10a-octahydro-benzo[g]quinoline-6,7-diol]
- Oral bioavailability, in words [3]: low oral bioavailability

SMILES: CCCN1CCC[C@@H]2Cc3c(ccc4c3OCO4)C[C@H]21 [Compound (Ib)]
- Plasma profile of compound (I) after oral dosing, in words [2]: early and high peak concentrations

SMILES: CCCN1CCC[C@@H]2Cc3c(ccc(O)c3O[C@@H]3O[C@H](C(=O)O)[C@@H](O)[C@H](O)[C@H]3O)C[C@H]21 [Compound (Id), (2S,3S,4S,5R,6S)-3,4,5-trihydroxy-6-(((4aR,10aR)-7-hydroxy-1-propyl-1,2,3,4,4a,5,10,10a-octahydrobenzo[g]quinolin-6-yl)oxy)tetrahydro-2H-pyran-2-carboxylic acid]
- pKa ([4]; anion / dianion boundary pH, read-out: pKa (third), boundary between major species of ionization): 10.1
- pKa ([4]; cation / zwitterion boundary pH, read-out: pKa (first), boundary between major species of ionization): 2.8
- pKa ([4]; zwitterion / anion boundary pH, read-out: pKa (second), boundary between major species of ionization): 8.8
- Conversion to compound (I) [5]: time dependent conversion
- Conversion to compound (I) [6]: time dependent conversion
- Conversion to compound (I) [7]: time dependent conversion
- Conversion to compound (I) [8]: time dependent conversion
- Plasma profile of compound (I) after oral dosing, in words [2]: slower absorption rate avoiding rapid peak concentrations accompanied by a sustained exposure
- Relationship of behavioral effect and plasma concentration ([9]; (Id) 100 μg/kg p.o. (FIG. 4), apomorphine 3 mg/kg s.c. (FIG. 5)): correlate with the plasma concentrations of compound (I)
- Duration of locomotor effect, in words ([9]; (Id) 10 to 300 μg/kg p.o., recording to the 415-minute time point): lasting until the end of recording
- Total distance travelled, in words ([9]; FIG. 3, (Id) 10, 30, 100 or 300 μg/kg p.o., apomorphine 3 mg/kg s.c., pramipexole 0.3 mg/kg s.c., vs vehicle): significantly increased activity
- In vivo conversion to compound (I) [10]: In vivo conversion of compound (Id) to compound (I) has also been observed

SMILES: CCCc1cc2c(s1)CN[C@@H]1CCc3cc(OC(C)=O)c(OC(C)=O)cc3[C@@H]21 [adrogolide]
- Oral bioavailability [11]: ~4%
